Data from patent US11208412B2 (DAEGU-GYEONGBUK MEDICAL INNOVATION FOUNDATION, priority 2017, dated 2021).
Like-named read-outs stand apart in the source and are kept apart here.

Key:
Assay in all cases: Kinase selectivity, DiscoverX scanMAX Kinase assay panel (% control)
Assay type in all cases: binding
[1] = molecular target: T1, kinases of the scanMAX Kinase assay panel (Homo sapiens, UniProt O60674); details: JAK2(JH1domain-catalytic); 1 uM
T1 construct: purchased DiscoverX Co. (contract measurement) scanMAX Kinase assay panel
T1 sequence (O60674 whole entry): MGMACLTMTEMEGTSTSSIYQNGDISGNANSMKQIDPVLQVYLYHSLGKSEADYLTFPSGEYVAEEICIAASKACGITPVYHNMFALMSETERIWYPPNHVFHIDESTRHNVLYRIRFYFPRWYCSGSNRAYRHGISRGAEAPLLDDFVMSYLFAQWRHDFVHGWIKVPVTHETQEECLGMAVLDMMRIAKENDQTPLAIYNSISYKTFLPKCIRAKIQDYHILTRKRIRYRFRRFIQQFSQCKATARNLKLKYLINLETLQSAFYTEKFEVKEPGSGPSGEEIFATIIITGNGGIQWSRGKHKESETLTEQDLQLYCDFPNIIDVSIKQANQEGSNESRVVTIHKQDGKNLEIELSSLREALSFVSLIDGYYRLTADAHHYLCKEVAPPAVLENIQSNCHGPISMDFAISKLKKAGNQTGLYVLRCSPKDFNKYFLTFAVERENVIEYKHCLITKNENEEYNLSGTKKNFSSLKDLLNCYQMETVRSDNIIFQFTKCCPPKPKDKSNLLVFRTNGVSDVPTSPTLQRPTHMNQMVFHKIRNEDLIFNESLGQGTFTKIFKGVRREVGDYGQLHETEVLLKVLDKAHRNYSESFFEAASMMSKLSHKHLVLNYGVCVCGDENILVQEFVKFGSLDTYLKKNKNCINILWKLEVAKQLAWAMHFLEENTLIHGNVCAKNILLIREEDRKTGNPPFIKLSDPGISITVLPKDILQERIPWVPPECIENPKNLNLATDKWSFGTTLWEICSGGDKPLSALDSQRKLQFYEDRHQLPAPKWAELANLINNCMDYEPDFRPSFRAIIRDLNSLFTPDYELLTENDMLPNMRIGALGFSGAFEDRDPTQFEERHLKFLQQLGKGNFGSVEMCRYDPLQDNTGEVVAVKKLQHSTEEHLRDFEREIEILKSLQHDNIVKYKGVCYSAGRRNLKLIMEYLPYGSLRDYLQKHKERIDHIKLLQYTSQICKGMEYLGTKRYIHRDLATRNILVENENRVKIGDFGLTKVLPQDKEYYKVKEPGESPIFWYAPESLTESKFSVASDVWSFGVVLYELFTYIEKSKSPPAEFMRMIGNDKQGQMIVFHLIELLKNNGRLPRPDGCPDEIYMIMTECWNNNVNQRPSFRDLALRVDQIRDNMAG
Summary of the method: (§1)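 Single-point screen, 1 uM cpd in DMSO. % ctrl = (cpd − pos ctrl)/(neg ctrl − pos ctrl)×100; pos ctrl = 0%, DMSO neg ctrl = 100%. Hit cutoff <35%.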

[2] = molecular target: T2, kinases of the scanMAX Kinase assay panel (Homo sapiens, UniProt O95382); details: ASK2; 1 uM
T2 construct: purchased DiscoverX Co. (contract measurement) scanMAX Kinase assay panel
T2 sequence (O95382 1-1288): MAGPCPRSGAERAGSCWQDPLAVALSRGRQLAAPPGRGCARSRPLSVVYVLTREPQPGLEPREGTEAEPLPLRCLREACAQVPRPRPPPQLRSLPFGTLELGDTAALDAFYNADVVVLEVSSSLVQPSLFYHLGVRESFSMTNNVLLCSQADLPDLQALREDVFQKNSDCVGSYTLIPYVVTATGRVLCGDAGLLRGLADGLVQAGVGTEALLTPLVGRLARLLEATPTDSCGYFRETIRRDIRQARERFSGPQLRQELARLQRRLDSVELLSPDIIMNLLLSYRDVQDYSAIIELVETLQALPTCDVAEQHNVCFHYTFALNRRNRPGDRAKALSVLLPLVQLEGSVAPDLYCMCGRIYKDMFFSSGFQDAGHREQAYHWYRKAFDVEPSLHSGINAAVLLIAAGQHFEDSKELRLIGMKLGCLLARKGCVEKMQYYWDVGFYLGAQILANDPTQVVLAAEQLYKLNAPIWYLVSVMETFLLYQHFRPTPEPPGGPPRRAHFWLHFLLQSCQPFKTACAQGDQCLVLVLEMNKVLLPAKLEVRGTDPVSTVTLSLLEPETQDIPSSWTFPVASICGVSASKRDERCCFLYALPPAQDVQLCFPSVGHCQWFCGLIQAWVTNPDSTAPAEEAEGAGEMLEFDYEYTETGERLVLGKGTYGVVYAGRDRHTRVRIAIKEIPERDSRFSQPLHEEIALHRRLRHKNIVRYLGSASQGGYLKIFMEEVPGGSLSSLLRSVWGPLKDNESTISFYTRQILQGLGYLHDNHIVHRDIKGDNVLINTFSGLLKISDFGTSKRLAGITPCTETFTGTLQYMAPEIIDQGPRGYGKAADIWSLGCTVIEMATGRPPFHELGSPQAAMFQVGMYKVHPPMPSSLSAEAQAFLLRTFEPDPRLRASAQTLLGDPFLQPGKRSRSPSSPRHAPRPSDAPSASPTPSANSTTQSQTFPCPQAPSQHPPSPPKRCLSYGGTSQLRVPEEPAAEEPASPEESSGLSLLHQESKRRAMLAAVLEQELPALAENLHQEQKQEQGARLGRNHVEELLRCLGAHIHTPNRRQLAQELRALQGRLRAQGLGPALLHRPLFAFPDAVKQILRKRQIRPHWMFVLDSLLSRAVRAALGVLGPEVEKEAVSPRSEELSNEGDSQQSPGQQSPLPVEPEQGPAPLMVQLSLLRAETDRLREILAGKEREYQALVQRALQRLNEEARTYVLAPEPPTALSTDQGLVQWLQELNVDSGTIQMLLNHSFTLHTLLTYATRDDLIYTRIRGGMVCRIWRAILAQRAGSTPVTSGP
Summary of the method: as §1

[3] = molecular target: T3, kinases of the scanMAX Kinase assay panel (Homo sapiens, UniProt Q9BVS4); details: kinase RIOK2; 1 uM in DMSO
T3 construct: purchased DiscoverX Co. (contract measurement) scanMAX Kinase assay panel
T3 sequence (Q9BVS4 whole entry): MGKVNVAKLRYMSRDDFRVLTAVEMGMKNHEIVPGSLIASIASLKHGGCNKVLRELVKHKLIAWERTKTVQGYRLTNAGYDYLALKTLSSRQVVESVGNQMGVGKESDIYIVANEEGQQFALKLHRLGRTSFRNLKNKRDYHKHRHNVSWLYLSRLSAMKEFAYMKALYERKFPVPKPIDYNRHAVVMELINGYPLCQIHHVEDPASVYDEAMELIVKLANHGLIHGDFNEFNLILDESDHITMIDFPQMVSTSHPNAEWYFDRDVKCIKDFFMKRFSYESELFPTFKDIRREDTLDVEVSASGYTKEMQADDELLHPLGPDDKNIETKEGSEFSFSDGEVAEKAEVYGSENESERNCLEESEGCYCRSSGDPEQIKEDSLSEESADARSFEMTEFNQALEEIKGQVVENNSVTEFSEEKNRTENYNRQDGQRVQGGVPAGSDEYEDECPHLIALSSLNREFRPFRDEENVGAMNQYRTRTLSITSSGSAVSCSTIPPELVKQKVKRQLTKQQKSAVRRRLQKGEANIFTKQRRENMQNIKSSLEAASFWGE
Summary of the method: as §1

[4] = molecular target: T4, kinases of the scanMAX Kinase assay panel (Homo sapiens, UniProt Q92630); details: DYRK2; 1 uM
T4 construct: purchased DiscoverX Co. (contract measurement) scanMAX Kinase assay panel
T4 sequence (Q92630 1-601): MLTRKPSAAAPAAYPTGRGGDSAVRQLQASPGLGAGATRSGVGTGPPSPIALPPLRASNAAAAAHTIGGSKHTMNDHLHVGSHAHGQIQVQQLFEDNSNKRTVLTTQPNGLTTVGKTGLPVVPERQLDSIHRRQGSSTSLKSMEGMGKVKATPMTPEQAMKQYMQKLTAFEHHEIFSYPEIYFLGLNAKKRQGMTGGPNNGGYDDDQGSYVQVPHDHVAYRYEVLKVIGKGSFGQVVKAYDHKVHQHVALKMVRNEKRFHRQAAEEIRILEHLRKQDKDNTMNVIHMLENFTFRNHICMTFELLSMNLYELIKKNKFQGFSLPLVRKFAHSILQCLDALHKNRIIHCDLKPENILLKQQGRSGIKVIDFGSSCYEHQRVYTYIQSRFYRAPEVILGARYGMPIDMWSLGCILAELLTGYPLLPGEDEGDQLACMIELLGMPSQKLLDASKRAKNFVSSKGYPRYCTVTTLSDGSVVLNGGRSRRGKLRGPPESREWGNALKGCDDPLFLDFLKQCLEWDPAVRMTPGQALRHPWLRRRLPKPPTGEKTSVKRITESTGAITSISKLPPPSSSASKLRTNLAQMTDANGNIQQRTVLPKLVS
Summary of the method: as §1

[5] = molecular target: T5, kinases of the scanMAX Kinase assay panel (Homo sapiens, UniProt Q9Y2I7); details: PIKFYVE; 1 uM
T5 construct: purchased DiscoverX Co. (contract measurement) scanMAX Kinase assay panel
Summary of the method: as §1

[6] = molecular target: T6, kinases of the scanMAX Kinase assay panel (Homo sapiens, UniProt P51812); details: 1 uM in DMSO
T6 construct: purchased DiscoverX Co. (contract measurement) scanMAX Kinase assay panel
T6 sequence (P51812 whole entry): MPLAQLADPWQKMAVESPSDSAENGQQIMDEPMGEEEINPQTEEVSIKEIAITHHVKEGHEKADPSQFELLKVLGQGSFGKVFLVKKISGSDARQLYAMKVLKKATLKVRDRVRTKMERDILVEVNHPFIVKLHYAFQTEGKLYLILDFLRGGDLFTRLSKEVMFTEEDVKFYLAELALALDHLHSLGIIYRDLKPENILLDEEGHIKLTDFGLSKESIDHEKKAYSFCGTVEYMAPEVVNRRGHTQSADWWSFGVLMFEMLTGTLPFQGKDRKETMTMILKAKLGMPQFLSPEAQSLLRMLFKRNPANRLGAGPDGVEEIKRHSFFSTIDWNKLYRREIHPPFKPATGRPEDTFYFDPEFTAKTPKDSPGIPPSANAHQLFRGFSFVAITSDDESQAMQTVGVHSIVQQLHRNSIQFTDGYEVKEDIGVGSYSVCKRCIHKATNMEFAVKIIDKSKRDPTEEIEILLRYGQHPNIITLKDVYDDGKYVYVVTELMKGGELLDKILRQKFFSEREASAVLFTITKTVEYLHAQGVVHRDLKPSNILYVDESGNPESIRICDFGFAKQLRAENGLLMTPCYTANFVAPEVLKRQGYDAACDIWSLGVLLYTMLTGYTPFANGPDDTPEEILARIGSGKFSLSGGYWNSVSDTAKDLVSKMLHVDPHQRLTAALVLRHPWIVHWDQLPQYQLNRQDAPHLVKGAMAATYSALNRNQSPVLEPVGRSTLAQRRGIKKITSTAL
Summary of the method: as §1

[7] = molecular target: T7, kinases of the scanMAX Kinase assay panel (Homo sapiens, UniProt Q99755); details: PIP5K1A; 1 uM
T7 construct: purchased DiscoverX Co. (contract measurement) scanMAX Kinase assay panel
T7 sequence (Q99755 whole entry): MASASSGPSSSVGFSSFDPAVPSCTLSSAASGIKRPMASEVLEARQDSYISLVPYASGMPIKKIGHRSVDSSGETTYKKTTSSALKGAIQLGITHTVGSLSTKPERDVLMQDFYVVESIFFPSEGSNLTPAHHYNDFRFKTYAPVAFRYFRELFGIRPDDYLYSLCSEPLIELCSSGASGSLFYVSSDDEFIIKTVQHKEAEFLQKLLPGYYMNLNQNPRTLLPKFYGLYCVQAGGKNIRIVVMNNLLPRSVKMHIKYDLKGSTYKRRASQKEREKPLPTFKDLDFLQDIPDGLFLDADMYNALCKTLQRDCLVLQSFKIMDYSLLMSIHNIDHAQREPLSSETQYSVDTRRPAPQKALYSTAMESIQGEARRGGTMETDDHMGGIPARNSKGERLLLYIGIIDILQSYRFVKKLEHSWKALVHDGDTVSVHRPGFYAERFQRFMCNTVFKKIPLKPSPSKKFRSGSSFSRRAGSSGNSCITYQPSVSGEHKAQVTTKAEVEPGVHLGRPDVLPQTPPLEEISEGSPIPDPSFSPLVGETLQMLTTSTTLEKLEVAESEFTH
Summary of the method: as §1

[8] = molecular target: T8, kinases of the scanMAX Kinase assay panel (Homo sapiens, UniProt P36507); details: MEK2; 1 uM
T8 construct: purchased DiscoverX Co. (contract measurement) scanMAX Kinase assay panel
T8 sequence (P36507 whole entry): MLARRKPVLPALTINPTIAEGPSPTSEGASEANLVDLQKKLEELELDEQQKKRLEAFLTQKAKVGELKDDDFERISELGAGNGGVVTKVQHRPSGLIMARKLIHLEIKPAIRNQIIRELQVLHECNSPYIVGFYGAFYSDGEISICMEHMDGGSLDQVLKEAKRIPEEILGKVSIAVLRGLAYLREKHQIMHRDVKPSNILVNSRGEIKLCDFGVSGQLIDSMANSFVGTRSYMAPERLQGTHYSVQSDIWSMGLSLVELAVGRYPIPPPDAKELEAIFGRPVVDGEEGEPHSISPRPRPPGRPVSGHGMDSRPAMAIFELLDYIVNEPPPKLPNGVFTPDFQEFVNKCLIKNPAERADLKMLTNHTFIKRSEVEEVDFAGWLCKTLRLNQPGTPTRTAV
Summary of the method: as §1

[9] = molecular target: T9, kinases of the scanMAX Kinase assay panel (Homo sapiens, UniProt Q9P1W9); details: PIM2; 1 uM
T9 construct: purchased DiscoverX Co. (contract measurement) scanMAX Kinase assay panel
T9 sequence (Q9P1W9 whole entry): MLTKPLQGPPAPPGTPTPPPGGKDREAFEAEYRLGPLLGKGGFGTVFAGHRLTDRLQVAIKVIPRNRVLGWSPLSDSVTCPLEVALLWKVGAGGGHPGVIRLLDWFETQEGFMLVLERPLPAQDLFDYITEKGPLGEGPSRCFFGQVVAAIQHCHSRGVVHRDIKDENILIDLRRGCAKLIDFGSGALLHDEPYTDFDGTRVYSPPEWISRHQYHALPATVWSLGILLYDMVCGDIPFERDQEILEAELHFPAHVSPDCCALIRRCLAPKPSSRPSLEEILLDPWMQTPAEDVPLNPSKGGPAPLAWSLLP
Summary of the method: as §1

[10] = molecular target: T10, kinases of the scanMAX Kinase assay panel (Homo sapiens, UniProt Q9Y6M4); details: CSNK1G3; 1 uM
T10 construct: purchased DiscoverX Co. (contract measurement) scanMAX Kinase assay panel
T10 sequence (Q9Y6M4 whole entry): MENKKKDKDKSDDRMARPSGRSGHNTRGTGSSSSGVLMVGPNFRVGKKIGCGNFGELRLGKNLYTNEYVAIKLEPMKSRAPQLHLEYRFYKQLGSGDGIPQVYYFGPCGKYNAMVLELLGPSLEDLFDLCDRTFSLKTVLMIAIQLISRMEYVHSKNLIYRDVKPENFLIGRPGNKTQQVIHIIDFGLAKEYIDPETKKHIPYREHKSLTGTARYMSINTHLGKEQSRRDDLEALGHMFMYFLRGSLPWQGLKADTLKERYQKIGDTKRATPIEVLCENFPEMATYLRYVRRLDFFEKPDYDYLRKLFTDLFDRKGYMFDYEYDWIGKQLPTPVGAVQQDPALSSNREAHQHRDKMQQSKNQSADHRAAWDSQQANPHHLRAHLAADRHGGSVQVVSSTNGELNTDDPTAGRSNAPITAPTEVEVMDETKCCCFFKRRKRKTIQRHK
Summary of the method: as §1

[11] = kinase RSK2(Kin.Dom.1-N-terminal), read-out: % control, RSK2(Kin.Dom.1-N-terminal)
[12] = kinase RSK2(Kin.Dom.2-C-terminal), read-out: % control, RSK2(Kin.Dom.2-C-terminal)

CNc1nc(Nc2ccc(C(=O)N3CCOCC3)cc2OC)nc2[nH]cc(C#N)c12 [Example 1, 2-((2-methoxy-4-(morpholine-4-carbonyl)phenyl)amino)-4-(methylamino)-7H-pyrrolo[2,3-d]pyrimidine-5-carbonitrile]
remaining binding at 1 µM [1]: 83% | remaining binding at 1 µM [2]: 56% | remaining binding at 1 µM [3]: 47% | remaining binding at 1 µM [4]: 22% | remaining binding at 1 µM [5]: 73% | remaining binding at 1 µM [6, 11]: 68% | remaining binding at 1 µM [6, 12]: 66% | remaining binding at 1 µM [7]: 99% | remaining binding at 1 µM [8]: 93% | remaining binding at 1 µM [9]: 78% | remaining binding at 1 µM [10]: 58%

CC1(Nc2nc(Nc3cnn([C@H]4CCN(C5COC5)C[C@@H]4F)c3Cl)nc3[nH]cc(C#N)c23)CC1 [Example 52, 2-((5-chloro-1-((3S,4S)-3-fluoro-1-(oxetane-3-yl)piperidine-4-yl)-1H-pyrazole-4-yl)amino)((1-methylcyclopropyl)amino)-7H-pyrrolo[2,3-d]pyrimidine-5-carbonitrile]
remaining binding at 1 µM [1]: 0% | remaining binding at 1 µM [2]: 11% | remaining binding at 1 µM [3]: 1.1% | remaining binding at 1 µM [4]: 0.8% | remaining binding at 1 µM [5]: 65% | remaining binding at 1 µM [6, 11]: 0.55% | remaining binding at 1 µM [6, 12]: 100% | remaining binding at 1 µM [7]: 2.5% | remaining binding at 1 µM [8]: 0.3% | remaining binding at 1 µM [9]: 63% | remaining binding at 1 µM [10]: 0.15%

CCNc1nc(Nc2ccc(C(=O)N3CCC(N4CCOCC4)CC3)cc2OC)nc2[nH]cc(C(F)(F)F)c12 [Example 104, (4-((4-(ethylamino)-5-(trifluoromethyl)-7H-pyrrolo[2,3-d]pyrimidine-2-yl)amino)-3-methoxyphenyl)(4-morpholinopiperidine-1-yl)methanone]
remaining binding at 1 µM [1]: 100% | remaining binding at 1 µM [2]: 92% | remaining binding at 1 µM [3]: 75% | remaining binding at 1 µM [4]: 25% | remaining binding at 1 µM [5]: 100% | remaining binding at 1 µM [6, 11]: 100% | remaining binding at 1 µM [6, 12]: 71% | remaining binding at 1 µM [7]: 100% | remaining binding at 1 µM [8]: 83% | remaining binding at 1 µM [9]: 100% | remaining binding at 1 µM [10]: 90%
